{"source": "ChEMBL document CHEMBL4364318", "about": "“Targeting multiple myeloma with natural polyphenols” (Eur J Med Chem, 2019)", "key": {"[1]": {"test_system": "RPMI-8226", "assay": "Induction of apoptosis in human RPMI8226 cells at 10 to 20 uM by TUNEL assay relative to control", "assay_type": "functional"}, "[2]": {"test_system": "U-266", "assay": "Induction of nitric oxide production in human U266 cells", "assay_type": "functional, cell-based"}}, "data": [{"smiles": "O=C(O[C@@H]1Cc2c(O)cc(O)cc2O[C@@H]1c1cc(O)c(O)c(O)c1)c1cc(O)c(O)c(O)c1", "note": "[EPIGALOCATECHIN GALLATE]", "values": [{"measurement": "Activity", "setting": "[1]", "value": ">100", "unit": "%"}, {"measurement": "IC50", "setting": "[2]", "value": 23.2, "unit": "µM"}]}]}
